Measured values: patent publication US5571785A, “Biologically active compounds” (Farmitalia Carlo Erba S.r.l, priority 1993, dated 1996)
Where a name gives a salt, the structure may show the parent alone.

Experiments:
[1] = Single-dose i.v. toxicity in healthy mice (LD10, LD50, therapeutic index); format: in vivo, mouse; details: mouse, in vivo, iv; single dose i.v., healthy C57 B1/F mice, Probit Analysis after 3-week recovery
Experimental: (§1) Toxicity was evaluated in healthy C57B1F mice, treatment i.v., with single doses of 4'-epidoxorubicin.HCl (13.2-16.15-19-20.6-25.2 and 33.2 mg/kg) and compound A4 (50-63-79-100-120-140 mg/kg)
(§2) For the determination of LD10 and LD= in healthy C57 B1F mice the Probit Analysis' after 3-week recovery was used.
(§3) The therapeutic index was calculated using the following formula: [formula]
(§4) Dose effective 50 is the dose causing 50% of tumor growth reduction.

healthy C57B1F mice = assay: as above; format: in vivo, mouse; details: for LD10: Probit Analysis after 3-week recovery
Experimental: as §1, §2, §3, §4

[2] = system: M5076 murine reticulosarcoma; assay: Antitumour activity (and toxic deaths) against M5076 murine reticulosarcoma transplanted s.c. in mice; format: in vivo, mouse (C75 B1/6 mice); details: for A.U.C. % inhib / T.C. % (median survival time treated/control × 100) / TOX (number of toxic deaths/total number of mice) / TDG (Tumor Growth Delay) (1 g) / LTS (Long Terms Survivors) / Tox (number of toxic deaths/total number of mice) / Tumor free (mice tumor free at the end of the experiments): days 5, 9, 15; for TDG (Tumor Growth Delay) (1 g): time to reach 1 g tumor weight
Experimental: Antitumour activity of compound A1 on M5076.
The antitumour activity of A1, described in Example 13, was tested as follows:
All drug solutions were prepared immediately before use. Treatment was administered i.v. in a volume of 10 ml/Kg body weight at days 5,9 and 15.
Anthracyclines were dissolved in sterile water and the concentration was checked spectrophotometrically.
Lyophylized polymers were dissolved in water to give a starting solution of 25 mg anthracycline equivalent/ml according to the reported concentration,further dilutions were performed in water.
M5076 murine reticulosarcoma was obtained by serial i.m. passage and transplanted (5×10^5 cells/mouse) s.c. in C75 B1/6 mice to evaluate the activity on primary tumor.
Tumor growth was assessed by. caliper measurement, and the tumor weight estimated according to Geran etal., see Cancer Chemother. Rep. 3, 1 (1972).
The antitumor activity was determined in time (days) to reach one gramm tumor weight and is reported as tumor growth delay (TGD).
The median increase in survival time (T/C%) was calculated using the following formula: [formula]
Toxicity was evaluated on the basis of body weight reduction and gross finding main of spleen and liver reduction.
Neurotoxicity is determined as number of mice with lack of motor function. […]
The antitumor activity was tested with the same treatment schedule for 4'-epidoxorubicin.HCl and compound A4.

[3] = single dose i.v., healthy C57 B1/F mice
[4] = Table 2, 4.0 mg/kg (anthracycline equivalent) i.v.
[5] = Table 2, 5.0 mg/kg (anthracycline equivalent) i.v.
[6] = Table 2, 6.0 mg/kg (anthracycline equivalent) i.v.
[7] = Table 1, 30.0 mg/kg (anthracycline equivalent) i.v.
[8] = Table 1, 40.0 mg/kg (anthracycline equivalent) i.v.
[9] = Table 1, 50.0 mg/kg (anthracycline equivalent) i.v.

COc1cccc2c1C(=O)c1c(O)c3c(c(O)c1C2=O)C[C@@](O)(C(=O)CO)C[C@@H]3O[C@H]1C[C@H](N)[C@@H](O)[C@H](C)O1 [4'-epidoxorubicin.HCl, reference compound]
LD50 at 504 h [1]: 21.4 mg/kg | LD10 (healthy C57B1F mice; [3]): 16.4 mg/kg | A.U.C. % inhib ([2]; Table 3, 5 mg/kg): 51% | T.C. % (median survival time treated/control × 100) ([2]; Table 3, 5 mg/kg): 105% | TOX (number of toxic deaths/total number of mice) ([2]; Table 3, 5 mg/kg): 0/9 | TDG (Tumor Growth Delay) (1 g) ([2]; Table 3, 5 mg/kg): 22 days | A.U.C. % inhib ([2]; Table 3, 7.5 mg/kg): 90% | T.C. % (median survival time treated/control × 100) ([2]; Table 3, 7.5 mg/kg): 124% | TOX (number of toxic deaths/total number of mice) ([2]; Table 3, 7.5 mg/kg): 0/9 | TDG (Tumor Growth Delay) (1 g) ([2]; Table 3, 7.5 mg/kg): 34 days | A.U.C. % inhib ([2]; Table 3, 10 mg/kg): 99% | T.C. % (median survival time treated/control × 100) ([2]; Table 3, 10 mg/kg): 125% | TOX (number of toxic deaths/total number of mice) ([2]; Table 3, 10 mg/kg): 0/9 | TDG (Tumor Growth Delay) (1 g) ([2]; Table 3, 10 mg/kg): 40 days

CC(=O)[C@]1(O)Cc2c(O)c3c(c(O)c2[C@@H](O[C@H]2C[C@H](N)[C@H](O)[C@H](C)O2)C1)C(=O)c1ccccc1C3=O [4-demethoxydaunorubicin, reference compound]
A.U.C. % inhib ([2]; Table 2, 1.0 mg/kg i.v.): 47% | LTS (Long Terms Survivors) ([2]; Table 2, 1.0 mg/kg i.v.): 0/9 | T.C. % (median survival time treated/control × 100) ([2]; Table 2, 1.0 mg/kg i.v.): 142% | Tox (number of toxic deaths/total number of mice) ([2]; Table 2, 1.0 mg/kg i.v.): 0/9 | Tumor free (mice tumor free at the end of the experiments) ([2]; Table 2, 1.0 mg/kg i.v.): 0/9 | TDG (Tumor Growth Delay) (1 g) ([2]; Table 2, 1.0 mg/kg i.v.): 19 days | A.U.C. % inhib ([2]; Table 2, 1.5 mg/kg i.v.): 80% | LTS (Long Terms Survivors) ([2]; Table 2, 1.5 mg/kg i.v.): 0/9 | T.C. % (median survival time treated/control × 100) ([2]; Table 2, 1.5 mg/kg i.v.): 160% | Tox (number of toxic deaths/total number of mice) ([2]; Table 2, 1.5 mg/kg i.v.): 0/9 | Tumor free (mice tumor free at the end of the experiments) ([2]; Table 2, 1.5 mg/kg i.v.): 0/9 | TDG (Tumor Growth Delay) (1 g) ([2]; Table 2, 1.5 mg/kg i.v.): 28 days

COc1cccc2c1C(=O)c1c(O)c3c(c(O)c1C2=O)C[C@@](O)(C(=O)CO)C[C@@H]3O[C@H]1C[C@H](N)[C@H](O)[C@H](C)O1 [doxorubicin, reference compound]
A.U.C. % inhib ([2]; Table 1, 7.5 mg/kg i.v.): 90% | LTS (Long Terms Survivors) ([2]; Table 1, 7.5 mg/kg i.v.): 0/26 | Tox (number of toxic deaths/total number of mice) ([2]; Table 1, 7.5 mg/kg i.v.): 0/26 | Tumor free (mice tumor free at the end of the experiments) ([2]; Table 1, 7.5 mg/kg i.v.): 0/26 | TDG (Tumor Growth Delay) (1 g) ([2]; Table 1, 7.5 mg/kg i.v.): 35 days | A.U.C. % inhib ([2]; Table 1, 10.0 mg/kg i.v.): 100% | LTS (Long Terms Survivors) ([2]; Table 1, 10.0 mg/kg i.v.): 0/26 | Tox (number of toxic deaths/total number of mice) ([2]; Table 1, 10.0 mg/kg i.v.): 3/26 | Tumor free (mice tumor free at the end of the experiments) ([2]; Table 1, 10.0 mg/kg i.v.): 0/26 | TDG (Tumor Growth Delay) (1 g) ([2]; Table 1, 10.0 mg/kg i.v.): 39 days

Copolymer of 3-methacryloylamino-2-hydroxypropane, 4'-epi-3'-N-(methacryloylglycyl-L-phenylalanyl-L-leuculglycyl)doxorubicin and 1-N-(methacryloylgylcyl)-2-hydrocypropane [A4]
therapeutic index (healthy C57B1F mice; calculated by formula using dose effective 50 (dose causing 50% of tumor growth reduction)): 40 | toxicity (healthy C57B1F mice; compared with 4'-epidoxorubicin.HCl): low toxicity | LD10 (healthy C57B1F mice; [3]): 128.0 mg/kg | LD50 (extrapolated value) (healthy C57B1F mice; single dose i.v., healthy C57 B1/F mice, Probit Analysis, extrapolated value, 30240 min): 389 mg/kg | A.U.C. % inhib ([2]; Table 3, 10 mg/kg): 100% | T.C. % (median survival time treated/control × 100) ([2]; Table 3, 10 mg/kg): 190% | TOX (number of toxic deaths/total number of mice) ([2]; Table 3, 10 mg/kg): 0/9 | TDG (Tumor Growth Delay) (1 g) ([2]; Table 3, 10 mg/kg): 62 days | A.U.C. % inhib ([2]; Table 3, 20 mg/kg): 100% | T.C. % (median survival time treated/control × 100) ([2]; Table 3, 20 mg/kg): 219% | TOX (number of toxic deaths/total number of mice) ([2]; Table 3, 20 mg/kg): 0/9 | TDG (Tumor Growth Delay) (1 g) ([2]; Table 3, 20 mg/kg): 62 days | A.U.C. % inhib ([2]; Table 3, 30 mg/kg): 100% | T.C. % (median survival time treated/control × 100) ([2]; Table 3, 30 mg/kg): 229% | TOX (number of toxic deaths/total number of mice) ([2]; Table 3, 30 mg/kg): 0/9 | TDG (Tumor Growth Delay) (1 g) ([2]; Table 3, 30 mg/kg): 71 days | Activity against early M5076 murine reticulosarcoma compared with free drug ([2]; versus 4'-epidoxorubicin.HCl, same treatment schedule): more active than free drug at all tested doses

Copolymer of 3-methacryloylamino-2-hyvdroxypropane, 4-demethoxy, 3'-N-(methacrylgylcyl-L-phenylalanyl-L-leucyl glycyl)daunorubicin and N-methacryloylglycine [A3]
A.U.C. % inhib [2, 4]: 100% | LTS (Long Terms Survivors) [2, 4]: 0/10 | T.C. % (median survival time treated/control × 100) [2, 4]: 198% | Tox (number of toxic deaths/total number of mice) [2, 4]: 0/10 | Tumor free (mice tumor free at the end of the experiments) [2, 4]: 0/10 | TDG (Tumor Growth Delay) (1 g) [2, 4]: 49 days | A.U.C. % inhib [2, 5]: 100% | LTS (Long Terms Survivors) [2, 5]: 0/10 | T.C. % (median survival time treated/control × 100) [2, 5]: 205% | Tox (number of toxic deaths/total number of mice) [2, 5]: 0/10 | Tumor free (mice tumor free at the end of the experiments) [2, 5]: 0/10 | TDG (Tumor Growth Delay) (1 g) [2, 5]: 50 days | A.U.C. % inhib [2, 6]: 100% | LTS (Long Terms Survivors) [2, 6]: 0/9 | T.C. % (median survival time treated/control × 100) [2, 6]: 212% | Tox (number of toxic deaths/total number of mice) [2, 6]: 0/9 | Tumor free (mice tumor free at the end of the experiments) [2, 6]: 0/9 | TDG (Tumor Growth Delay) (1 g) [2, 6]: 55 days

Copolymer of 3-methacryloylamino-2hydroxypropane, 3'-N-(methacryloylgly-L-phenlalanyl-L-leucylqlycyl)doxorubicin and N-methacryloylqlycine [A1]
A.U.C. % inhib [2, 7]: 100% | LTS (Long Terms Survivors) [2, 7]: 4/10 | T.C. % (median survival time treated/control × 100) [2, 7]: 378% | Tox (number of toxic deaths/total number of mice) [2, 7]: 0/10 | Tumor free (mice tumor free at the end of the experiments) [2, 7]: 3/10 | TDG (Tumor Growth Delay) (1 g) [2, 7]: 80 days | A.U.C. % inhib [2, 8]: 100% | LTS (Long Terms Survivors) [2, 8]: 6/10 | T.C. % (median survival time treated/control × 100) [2, 8]: > 369% | Tox (number of toxic deaths/total number of mice) [2, 8]: 0/10 | Tumor free (mice tumor free at the end of the experiments) [2, 8]: 5/10 | A.U.C. % inhib [2, 9]: 100% | LTS (Long Terms Survivors) [2, 9]: 7/10 | T.C. % (median survival time treated/control × 100) [2, 9]: > 369% | Tumor free (mice tumor free at the end of the experiments) [2, 9]: 7/10 | Tox (number of toxic deaths/total number of mice) ([2]; Table 1, 50.0 mg/kg (anthracycline equivalent) i.v., footnote *Neurotoxicity): 2/10
